Data published in patent publication US4203990A, “Anti-diarrheal 2-substituted quinuclidines” (G. D. Searle & Co., priority 1979, dated 1980).

Tests used:
[1] = system: gastrointestinal propulsive motility; assay: Mouse Cecal Test (charcoal in cecum, inhibition of gastrointestinal propulsive motility); format: in vivo, male Charles River mice; details: oral/IG, test compound 30 min before charcoal, cecum examined 3.5 h after charcoal, logistic method of Berkson
Excerpt: The present compounds are potent anti-diarrheal agents as evidenced by their ability to inhibit gastrointestinal propulsive motility as set forth in the following tests:
The method used for this assay is a modification of the techniques previously described by Macht and Barba-Gose, J. Amer. Pharm. Ass., 20, 558 (1931), and Janssen and Jageneau, J. Pharm. Pharmacol., 9, 381 (1957). Details are as follows:
A group of six, male Charles River mice weighing 20-25 g. which have been previously fasted for 24 hours are pretreated with the test compounds administered orally as a solution in water or suspended in 0.5% methyl cellulose. A constant volume of 10 ml./kg. is employed. Thirty minutes following administration of the test compounds, the animals are given a single oral dose of charcoal which consists of 0.2 ml. per mouse of 10% charcoal suspended in 1.0% methyl cellulose. Three and a half hours after charcoal administration, the animals are sacrificed and the cecum examined for the absence or presence of charcoal on an all-or-none basis.
The median effective dose (ED50) is then calculated for each compound using the logistic method of Berkson (1953).

[2] = system: castor oil-induced diarrhea; assay: Castor Oil-Induced Diarrhea in the Rat; format: in vivo, Charles River male rats; details: po, intragastric, 1 h before castor oil (1.0 ml per rat), at 2 hours past castor oil, method of Berkson
Description: Adult Charles River male rats are fasted in community cages for 24 hours prior to the test, with free access to water. The test compound is then administered intragastrically (suspended on 0.5% methyl cellulose) one hour prior to the intragastric administration of a dose of 1.0 ml. castor oil per rat. The rats are then observed for the presence or absence of diarrhea at hourly intervals for up to 8 hours past the castor oil administration. Using the method of Berkson (1953), the median effective dose (ED50) values are calculated at each hourly interval for the test compound.
The median effective dose at 2 hours past the castor oil administration for the following representative compound of the present invention in the castor oil-induced diarrhea in the Rat test is: […]

SMILES | ED50 [1] [mg/kg] | ED50 [2] [mg/kg]
Cl.c1ccc(C(CC2CC3CCN2CC3)(c2ccccc2)c2ccccc2)cc1 (stereo not shown) [2-(2,2,2-triphenylethyl)-1-azabicyclo[2.2.2] octane hydrochloride] | 0.9 ± 0.2 | 0.2 ± 0.05
Cl.c1ccc(C(CC2CC3CCN2CC3)(c2ccccc2)c2ccccn2)cc1 (stereo not shown) [2-[2,2-diphenyl-2-(2-pyridyl)ethyl]-1-azabicyclo[2.2.2]octane hydrochloride] | 18.1 ± 10.3 | –
Cc1nnc(C(CC2CC3CCN2CC3)(c2ccccc2)c2ccccc2)o1.Cl (stereo not shown) [2-[2-(5-methyl-1,3,4-oxadiazol-2-yl)-2,2-diphenylethyl]-1-azabicyclo[2.2.2]octane hydrochloride] | 4.4 ± 1.3 | –
